One compound from patent US20070082905A1, “PHARMACEUTICAL COMPOSITIONS COMPRISING N-TRIAZOLYMETHYL-PIPERAZINE COMPOUNDS AND METHODS OF USING SAME” (priority 2005, published 2007) can be followed below.

Data set [1] in a line: Safety assessment (ECG, pulse rate, blood pressure, laboratory, adverse events) in healthy male volunteers. The data set is classed as in vivo, human. How it is done:
Dose-rates administered locally into the hand vein were intended not to result in any systemic effects which were monitored by repeated measurements of heart rate and blood pressure. Blood pressure was taken before and after every infusion of drugs or solvents (sodium chloride, phenylephrine, Substance P); a 12-lead ECG was monitored continuously up to the end of the hand vein compliance measurements.
Safety was assessed by measuring ECG, pulse rate, blood pressure, haematology, blood chemistry, urinalysis, and by occurrence of adverse events.
(§1) Source verification of all data documented in case report forms was performed by an independent clinical monitor. Nineteen individuals were randomized and thus included in the safety analysis. Only the randomized participants who completed both dosing sessions according to protocol were included in the pharmacodynamic analysis (n=17). Two participants had to be withdrawn due to methodological problems during hand vein measurements. One of these two was exposed to Compound D and complete pharmacokinetic data were obtained leading to data sets of 18 participants for pharmacokinetic analysis.

Data set [2] in a line: Pharmacokinetics after a single oral dose in healthy male volunteers (plasma, HPLC-MS/MS). Format: in vivo, human. How it is done:
(§2) The pharmacokinetics after a single oral dose of the dihydrochloride salt of Compound D ((2R)-1-[3,5-bis(trifluoromethyl)benzoyl]-2-(1H-indol-3-ylmethyl)-4-{[5-(morpholinomethyl)-2H-1,2,3-triazol-4-yl]methyl}piperazine-dihydrochloride) were assessed in healthy male volunteers. Pharmacodynamic effects were also evaluated by measuring the antagonism of Substance P-induced venodialation using the hand vein compliance technique.
Nineteen healthy male non-smokers participated in a randomized, double-blind, placebo-controlled, cross-over study after each gave written informed consent. Only healthy volunteers without concurrent drug use were included in the study. […] Further exclusion criteria were: a history of allergies, known conditions causing endothelial dysfunction as diabetes, hyperlipidemia, arterial hypertension, hyperhomocysteinemia, and smoking, regular medication or treatment with drugs within the last 2 weeks, acute or chronic illness, and drug or alcohol abuse.
Next, Compound D as described herein (250 mg and 25 mg quinine sulphate) or placebo (25 mg quinine sulphate), both dissolved in water for injection and mint syrup, were administered as an oral solution. Quinine was added for blinding to mimic the bitter taste of Compound D and mint syrup to disguise the slightly yellowish colour as well as bitter taste. The infusion of Substance P (same dose as before study drug administration) was repeated at the following time points: 0.5 h, 1.25 h, 2 h, 2.75 h, 3.5 h, and 4.25 h after dosing. Each peptide application was separated by a wash-out phase of 45 min to avoid the occurrence of tolerance.
Venous blood samples for Compound D were taken 0.25 h before as well as 0.25 h, 0.5 h, 0.75 h, 1 h, 1.25 h, 2.0 h, 2.75 h, 3.5 h, 4.25 h, 6 h, 8 h, 12 h, and 24 h after administration. Blood was drawn into vials containing dry heparin, immediately stored on ice (+4° C.) and plasma was separated within 30 min at 3500 rpm for 10 min. The samples were stored at −20° C. until analysis. When time points of pharmacodynamic (hand vein compliance method) and pharmacokinetic measurements coincided the pharmacodynamic measurements were first finished before blood samples were taken, accepting a delay for pharmacokinetic sampling of about 5 min.
The plasma samples were then analyzed by extracting Compound D and its internal standard from plasma with diethylether, concentration and injection into an HPLC system with MS/MS detection. Accuracy and precision were within specifications; bias was <12%; the inter-day coefficient of variation was <14%. The lower limit of quantification was set at 0.2 ng/ml.
as §1
The area under the effect-time curve (AUCe) was calculated according to the trapezoidal rule. Statistical analysis of AUCe was performed using a mixed model analysis of variance (ANOVA) including the factors subject, sequence, period, and treatment. Pharmacokinetic calculations were performed using WinNonlin Professional 4.0.1 for Windows (Pharsight Corporation, Mountain View, Calif. 94040, USA). Differences in vital signs and dose-rates were assessed with Wilcoxon signed rank test, unless stated otherwise. Data are expressed as mean±SEM. A p-value of less than 0.05 was considered significant.

A further data set has as its target T1, NK-1 receptor (Homo sapiens, UniProt P25103).
T1 construct: measuring the antagonism of Substance P-induced venodialation using the hand vein compliance technique; from tissue; host or cells: dorsal hand vein of healthy male volunteers, in vivo
Description: Antagonism of Substance P-induced venodilation, dorsal hand vein compliance technique. The data set is classed as in vivo. How it is done:
as §2
The participants abstained from alcohol for at least 24 hours and from methylxanthine-containing beverages for at least 12 hours before the measurements of hand vein compliance were made. […] Venodilator responses were investigated in a quiet room maintained at a constant temperature between 23 and 25° C. using the dorsal hand vein compliance technique according to Aellig (See W. H. Aellig, A new technique for recording compliance of human hand veins. 1981. Br J Clin Pharmacol 2004; 58:S768-74) with modifications as described previously (Fricker R, et al., Endothelial venodilator response in carriers of genetic polymorphisms involved in NO synthesis and degradation. Br J Clin Pharmacol 2004; 58:169-77).
Hand vein compliance measurements started in the morning and the participants were asked to remain in a supine position throughout the study. The hand under investigation was placed on a vacuum pillow sloping upwards at an angle of 30° from horizontal. All vasoactive compounds were administered through a butterfly needle at a constant flow rate (0.25 ml·min^−1) into the vein under investigation. In each participant, the same hand vein was used for both study phases. Changes of the diameter of the vein were recorded using a linear variable differential transformer (Schaevitz®, Type 100 MHR, Pennsauken, N.J., USA) with a freely movable core (weight 0.5 g) resting over the centre of the vein under investigation. Transformer signals were amplified by a Schaevitz® CAS series signal conditioner and the output was recorded on a strip-chart recorder (LKB 2210 recorder, LKB Produkter AB®, Bromma, Sweden) at a paper speed of 0.5 cm·min^−1. The difference between the position of the core before and during inflation of a sphygmomanometer cuff on the same upper arm to 40 mmHg gave a measure of the diameter changes under a given congestion pressure. Peak heights on the strip-chart recorder were linearly proportional to the movement of the core and were measured manually in units according to standard operating procedures.
After having installed the tripod for hand vein compliance technique and having established a stable initial baseline with […] defined as 100% relaxation, increasing dose-rates of the selective α1-adrenoceptor agonist phenylephrine (Neo-Synephrine®, Abbott Laboratories, North Chicago, USA; dosages: 1.25−≦8000 ng·min^−1) were locally infused to constrict the vein by about 80%. This preconstriction baseline was defined as 0%, and the effect of subsequently administered vasodilators was expressed in percentage changes from the difference between the initial baseline diameter during normal saline and the diameter during stable preconstriction.
Once preconstriction was stable, Substance P (Calbiochem/Novabiochem AG, Läufelfingen, Switzerland) was co-administered until the maximal venodilation was reached (approximately 7-10 minutes). To prevent the peptide from sticking to tubing and syringes, substance P was dissolved in a 4% gelatine solution. Based on the experience of previous experiments in this setting, a Substance P dose rate of (1.5 pmol/min) was selected. If a participant reacted with less than 50% venodilation to the dose of 1.5 pmol/min, the dose was doubled to 3 pmol/min.
Next, Compound D as described herein (250 mg and 25 mg quinine sulphate) or placebo (25 mg quinine sulphate), both dissolved in water for injection and mint syrup, were administered as an oral solution. […]

The mark [3] stands for this setting: 250 mg oral, among participants.

Structures can show the parent of a compound that is named as a salt.

T1 sequence (P25103 whole entry): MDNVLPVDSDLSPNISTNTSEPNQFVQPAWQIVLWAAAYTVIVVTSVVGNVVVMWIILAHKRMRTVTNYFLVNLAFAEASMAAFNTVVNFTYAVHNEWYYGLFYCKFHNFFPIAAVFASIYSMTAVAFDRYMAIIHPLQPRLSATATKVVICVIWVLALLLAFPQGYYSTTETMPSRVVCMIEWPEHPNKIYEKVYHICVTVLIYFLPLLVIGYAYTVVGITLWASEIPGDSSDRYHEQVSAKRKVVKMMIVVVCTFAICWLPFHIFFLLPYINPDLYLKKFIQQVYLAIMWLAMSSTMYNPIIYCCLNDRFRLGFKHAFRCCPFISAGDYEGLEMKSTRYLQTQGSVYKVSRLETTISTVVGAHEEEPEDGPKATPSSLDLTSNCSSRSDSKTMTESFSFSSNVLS

Consider `O=C(c1cc(C(F)(F)F)cc(C(F)(F)F)c1)N1CCN(Cc2n[nH]nc2CN2CCOCC2)C[C@H]1Cc1c[nH]c2ccccc12` [Compound D, (2R)-1-[3,5-bis(trifluoromethyl)benzoyl]-2-(1H-indol-3-ylmethyl)-4-{[5-(morpholinomethyl)-2H-1,2,3-triazol-4-yl]methyl}piperazine-dihydrochloride], for which the serious adverse events entry in data set [1] (250 mg oral, 19 participants in safety analysis) is reported as “No serious adverse event occurred”. In addition, in data set [1] (250 mg oral, single dose), the “changes in heart rate, blood pressure, or ECG parameters” value was “Neither Compound D nor placebo induced significant changes” and the tolerability entry was “well tolerated in all participants”. The “adverse events possibly related to the study drug (number)” value in data set [1] (250 mg oral, mild headache, severe headache, cloudy urine, all resolved) is 3. Moreover, the heart rate in data set [1] (4.5 h after administration (baseline 60±2; p=0.14)) stood at 63±2 beats/min. In data set [1] (4.5 h after administration (baseline 68±3; p=0.12)), the diastolic blood pressure is listed as 72±2 mmHg. The compound further yielded a systolic blood pressure in data set [1] (4.5 h after administration (baseline 124±3; p=0.10)) of 127±2 mmHg. In addition, in data set [2] (250 mg oral solution, single dose, 18 healthy participants, mean±SEM), the “time to peak plasma concentration” value is at most 47 ± 3 min. The “plasma detectability 24 h after dosing (terminal phase)” value in data set [2] (250 mg oral, 24 h after dosing, lower limit of quantification 0.2 ng/ml) is “still detectable in low concentrations in all participants”. Besides, in data set [2] (setting [3]), the “ratio between maximal and minimal value for AUC (inter-individual variability)” value worked out at 6.3; the “ratio between maximal and minimal value for Cmax (inter-individual variability)” value was determined as 6.5. This compound showed a half-life in data set [2] (male, human, plasma, 250 mg oral solution, single dose, 18 healthy participants, mean±SEM) of 9.9 ± 1.6 h. In data set [2] (male, human, plasma, 250 mg oral solution, single dose, 18 healthy participants, mean±SEM, read-out: mean AUC0-∞), the AUC(0-inf) is 183 ± 22 ng·h/mL. The Cmax in data set [2] (male, human, plasma, 250 mg oral solution, single dose, 18 healthy participants, mean±SEM, read-out: peak plasma concentration (Cmax)) is 77 ± 9 ng/mL. Moreover, at NK-1 receptor (2 μg/min SNP into hand vein after last Substance P infusion, not different from placebo (p=0.69)), the “response to SNP (sodium nitroprusside) at the end of the experiment” value is given as 92±9%. Further, on NK-1 receptor (250 mg oral, 17 healthy participants, mean±SEM, 95% CI 78, 111), the “maximum antagonizing effect (% antagonism of Substance P-induced venodilation)” value is on record as 95±8%. The “Substance P-induced venodilation after administration (versus placebo)” value on NK-1 receptor (250 mg oral, 17 healthy participants, p<0.001 vs placebo) was “markedly decreased”. In addition, the “time of maximum antagonizing effect (mean)” value on NK-1 receptor (250 mg oral, 17 participants, mean±SEM, 95% CI 0.96, 1.98) turned out to be 1.47 ± 0.24 h. Also, at NK-1 receptor (250 mg oral, 17 participants, mean±SEM, 95% CI 198, 358, p<0.001 vs placebo), the “mean AUCe (area under the effect-time curve)” value was 278±67 %·h. In addition, the “time of maximum antagonizing effect (median)” value on NK-1 receptor (250 mg oral, 17 participants, median) came to 1.25 h. Also, at NK-1 receptor (250 mg oral, up to 4.25 h after dosing, counter-clockwise hysteresis), the “persistence of antagonistic effect relative to plasma concentration” value is given as “antagonistic effect persisted throughout the study while plasma concentrations declined”.
